Data as given in ChEMBL document CHEMBL2074347, “Circumvention of tumor multidrug resistance by a new annonaceous acetogenin: atemoyacin-B” (Acta Pharmacol Sin, 1999).

Tests used:
[1] = molecular target: T1, ATP-dependent translocase ABCB1 (Homo sapiens, UniProt P08183); assay: TP_TRANSPORTER: increase in Fura-2 intracellular accumulation (Fura-2: ? uM, Ateomyacin-B: 168 uM) in MCF-7/Dox cells; assay type: functional, cell-based
[2] = molecular target: T1, ATP-dependent translocase ABCB1; assay: TP_TRANSPORTER: increase in Doxorubicin intracellular accumulation (Doxorubicin: ? uM, Ateomyacin-B: 168 uM) in MCF-7/Dox cells; assay type: functional, cell-based

T1 sequence (P08183 whole entry): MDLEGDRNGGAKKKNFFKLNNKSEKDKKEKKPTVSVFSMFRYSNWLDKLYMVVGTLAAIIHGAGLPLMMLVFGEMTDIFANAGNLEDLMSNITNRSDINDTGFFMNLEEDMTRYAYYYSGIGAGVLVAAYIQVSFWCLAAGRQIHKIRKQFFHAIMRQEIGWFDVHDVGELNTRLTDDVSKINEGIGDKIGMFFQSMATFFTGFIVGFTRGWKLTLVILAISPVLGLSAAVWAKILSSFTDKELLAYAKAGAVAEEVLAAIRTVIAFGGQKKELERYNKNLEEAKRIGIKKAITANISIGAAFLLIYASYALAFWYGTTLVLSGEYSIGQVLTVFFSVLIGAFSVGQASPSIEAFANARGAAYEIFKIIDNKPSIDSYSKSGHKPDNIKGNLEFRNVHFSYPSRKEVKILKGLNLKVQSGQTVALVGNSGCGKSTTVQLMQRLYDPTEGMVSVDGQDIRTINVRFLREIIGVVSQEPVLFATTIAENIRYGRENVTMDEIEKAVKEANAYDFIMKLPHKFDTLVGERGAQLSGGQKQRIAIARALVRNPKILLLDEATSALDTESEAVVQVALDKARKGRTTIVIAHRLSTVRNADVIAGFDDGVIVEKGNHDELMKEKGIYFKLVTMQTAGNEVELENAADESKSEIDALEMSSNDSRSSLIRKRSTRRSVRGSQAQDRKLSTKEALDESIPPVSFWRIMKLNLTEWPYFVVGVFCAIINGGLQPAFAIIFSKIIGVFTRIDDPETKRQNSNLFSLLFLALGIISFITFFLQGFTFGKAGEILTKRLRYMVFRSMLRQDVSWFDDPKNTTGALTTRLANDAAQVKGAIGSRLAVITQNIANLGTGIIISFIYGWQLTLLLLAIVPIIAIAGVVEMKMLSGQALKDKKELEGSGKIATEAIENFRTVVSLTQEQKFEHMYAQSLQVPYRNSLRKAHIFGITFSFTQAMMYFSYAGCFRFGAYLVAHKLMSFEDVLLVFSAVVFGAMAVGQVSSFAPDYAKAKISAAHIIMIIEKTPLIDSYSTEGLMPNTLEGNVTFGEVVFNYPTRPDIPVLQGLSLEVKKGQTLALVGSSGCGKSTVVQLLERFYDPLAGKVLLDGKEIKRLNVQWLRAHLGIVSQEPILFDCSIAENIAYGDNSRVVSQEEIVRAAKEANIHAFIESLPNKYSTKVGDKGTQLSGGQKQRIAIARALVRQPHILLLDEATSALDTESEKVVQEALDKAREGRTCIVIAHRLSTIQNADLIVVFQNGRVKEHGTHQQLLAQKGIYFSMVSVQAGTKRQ

Activity [1]: 2.61 fold | Activity [2]: 3.28 fold
Structure (SMILES): CCCCCC(O)CCCCC(O)C1CCC(C2CCC(C(O)CCCCCCCCCCC3=CC(C)OC3=O)O2)O1 (configuration not stated) [Atemoyacin-B]
